Laboratory results reported in US7785828B1 (priority 2003, dated 2010).

Assays:
Type in all cases: cell-based
Mycosphaerella fijiensis = system: Mycosphaerella fijiensis
Fusarium graminearum = system: Fusarium graminearum
Septoria tritici = system: Septoria tritici

DGVKLCERPSKTWSGNCGNTKHCDKQCKNWEKAKHGACHVRNGKWKCFCYFNC (Defensin like) [L7-112]
Antifungal activity, Mycosphaerella fijiensis (improvement compared to DmAMP1) (Mycosphaerella fijiensis): + (key: + indicating 1- to 5-fold improvement compared to DmAMP1; ++ indicating >5- to 10-fold improvement; +++ indicating >10-fold improvement)
Antifungal activity, Fusarium graminearum (improvement compared to DmAMP1) (Fusarium graminearum): + (key: + indicating 1- to 5-fold improvement compared to DmAMP1; ++ indicating >5- to 10-fold improvement; +++ indicating >10-fold improvement)
Antifungal activity, Septoria tritici (improvement compared to DmAMP1) (Septoria tritici): + (key: + indicating 1- to 5-fold improvement compared to DmAMP1; ++ indicating >5- to 10-fold improvement; +++ indicating >10-fold improvement)

DGVKLCEKASQTWSGHCGNTKHCDNQCKNWEGAKHGACHKRSGKWKCFCYFNC (Defensin like) [L7-422]
Antifungal activity, Mycosphaerella fijiensis (improvement compared to DmAMP1) (Mycosphaerella fijiensis): + (key: + indicating 1- to 5-fold improvement compared to DmAMP1; ++ indicating >5- to 10-fold improvement; +++ indicating >10-fold improvement)
Antifungal activity, Fusarium graminearum (improvement compared to DmAMP1) (Fusarium graminearum): + (key: + indicating 1- to 5-fold improvement compared to DmAMP1; ++ indicating >5- to 10-fold improvement; +++ indicating >10-fold improvement)
Antifungal activity, Septoria tritici (improvement compared to DmAMP1) (Septoria tritici): + (key: + indicating 1- to 5-fold improvement compared to DmAMP1; ++ indicating >5- to 10-fold improvement; +++ indicating >10-fold improvement)

NLCERASKTWSGNCGNTKHCDNQCRNWEGAKHGACHKRSGKWKCFCYFNC (Defensin like) [L9-30]
Antifungal activity, Mycosphaerella fijiensis (improvement compared to DmAMP1) (Mycosphaerella fijiensis): + (key: + indicating 1- to 5-fold improvement compared to DmAMP1; ++ indicating >5- to 10-fold improvement; +++ indicating >10-fold improvement)
Antifungal activity, Fusarium graminearum (improvement compared to DmAMP1) (Fusarium graminearum): ++ (key: + indicating 1- to 5-fold improvement compared to DmAMP1; ++ indicating >5- to 10-fold improvement; +++ indicating >10-fold improvement)
Antifungal activity, Septoria tritici (improvement compared to DmAMP1) (Septoria tritici): + (key: + indicating 1- to 5-fold improvement compared to DmAMP1; ++ indicating >5- to 10-fold improvement; +++ indicating >10-fold improvement)

DGVKLCERASQTWTGHCGNTKHCDNQCRSWEGAAHGACHKRSGKWKCFCYFNC (Defensin like) [L7-82]
Antifungal activity, Mycosphaerella fijiensis (improvement compared to DmAMP1) (Mycosphaerella fijiensis): +++ (key: + indicating 1- to 5-fold improvement compared to DmAMP1; ++ indicating >5- to 10-fold improvement; +++ indicating >10-fold improvement)
Antifungal activity, Fusarium graminearum (improvement compared to DmAMP1) (Fusarium graminearum): ++ (key: + indicating 1- to 5-fold improvement compared to DmAMP1; ++ indicating >5- to 10-fold improvement; +++ indicating >10-fold improvement)
Antifungal activity, Septoria tritici (improvement compared to DmAMP1) (Septoria tritici): + (key: + indicating 1- to 5-fold improvement compared to DmAMP1; ++ indicating >5- to 10-fold improvement; +++ indicating >10-fold improvement)

NLCERASKTWSGNCGNTKHCDTQCRNWEGAKHGACHKRSGKWKCFCYFNC (Defensin like) [L9-09]
Antifungal activity, Mycosphaerella fijiensis (improvement compared to DmAMP1) (Mycosphaerella fijiensis): + (key: + indicating 1- to 5-fold improvement compared to DmAMP1; ++ indicating >5- to 10-fold improvement; +++ indicating >10-fold improvement)
Antifungal activity, Fusarium graminearum (improvement compared to DmAMP1) (Fusarium graminearum): +++ (key: + indicating 1- to 5-fold improvement compared to DmAMP1; ++ indicating >5- to 10-fold improvement; +++ indicating >10-fold improvement)
Antifungal activity, Septoria tritici (improvement compared to DmAMP1) (Septoria tritici): + (key: + indicating 1- to 5-fold improvement compared to DmAMP1; ++ indicating >5- to 10-fold improvement; +++ indicating >10-fold improvement)

NLCERASKTWSGNCGNTKHCDNQCKSWEGAAHGACHKRNGKWKCFCYFNC (Defensin like) [L9-18]
Antifungal activity, Mycosphaerella fijiensis (improvement compared to DmAMP1) (Mycosphaerella fijiensis): + (key: + indicating 1- to 5-fold improvement compared to DmAMP1; ++ indicating >5- to 10-fold improvement; +++ indicating >10-fold improvement)
Antifungal activity, Fusarium graminearum (improvement compared to DmAMP1) (Fusarium graminearum): ++ (key: + indicating 1- to 5-fold improvement compared to DmAMP1; ++ indicating >5- to 10-fold improvement; +++ indicating >10-fold improvement)
Antifungal activity, Septoria tritici (improvement compared to DmAMP1) (Septoria tritici): ++ (key: + indicating 1- to 5-fold improvement compared to DmAMP1; ++ indicating >5- to 10-fold improvement; +++ indicating >10-fold improvement)

NLCERASKTWSGNCGNTKHCDTQCKNWEGAKHGACHVRNGKHKCFCYFNC (Defensin like) [L6-83]
Antifungal activity, Mycosphaerella fijiensis (improvement compared to DmAMP1) (Mycosphaerella fijiensis): + (key: + indicating 1- to 5-fold improvement compared to DmAMP1; ++ indicating >5- to 10-fold improvement; +++ indicating >10-fold improvement)
Antifungal activity, Fusarium graminearum (improvement compared to DmAMP1) (Fusarium graminearum): +++ (key: + indicating 1- to 5-fold improvement compared to DmAMP1; ++ indicating >5- to 10-fold improvement; +++ indicating >10-fold improvement)
Antifungal activity, Septoria tritici (improvement compared to DmAMP1) (Septoria tritici): + (key: + indicating 1- to 5-fold improvement compared to DmAMP1; ++ indicating >5- to 10-fold improvement; +++ indicating >10-fold improvement)

DGVKLCERPSKTWSGHCGNTKHCDKQCRSWEGAAHGACHVRNGKWKCFCYFNC (Defensin like) [L7-94]
Antifungal activity, Mycosphaerella fijiensis (improvement compared to DmAMP1) (Mycosphaerella fijiensis): + (key: + indicating 1- to 5-fold improvement compared to DmAMP1; ++ indicating >5- to 10-fold improvement; +++ indicating >10-fold improvement)
Antifungal activity, Fusarium graminearum (improvement compared to DmAMP1) (Fusarium graminearum): ++ (key: + indicating 1- to 5-fold improvement compared to DmAMP1; ++ indicating >5- to 10-fold improvement; +++ indicating >10-fold improvement)
Antifungal activity, Septoria tritici (improvement compared to DmAMP1) (Septoria tritici): + (key: + indicating 1- to 5-fold improvement compared to DmAMP1; ++ indicating >5- to 10-fold improvement; +++ indicating >10-fold improvement)

NLCERASKTWSGNCGNTKHCDTQCRNWEGAKHGACHVRSGKHKCFCYFNC (Defensin like) [L9-27]
Antifungal activity, Mycosphaerella fijiensis (improvement compared to DmAMP1) (Mycosphaerella fijiensis): ++ (key: + indicating 1- to 5-fold improvement compared to DmAMP1; ++ indicating >5- to 10-fold improvement; +++ indicating >10-fold improvement)
Antifungal activity, Fusarium graminearum (improvement compared to DmAMP1) (Fusarium graminearum): ++ (key: + indicating 1- to 5-fold improvement compared to DmAMP1; ++ indicating >5- to 10-fold improvement; +++ indicating >10-fold improvement)
Antifungal activity, Septoria tritici (improvement compared to DmAMP1) (Septoria tritici): ++ (key: + indicating 1- to 5-fold improvement compared to DmAMP1; ++ indicating >5- to 10-fold improvement; +++ indicating >10-fold improvement)

NLCERASKTWSGNCGNTKHCDNQCRNWEGAKHGACHVRNGKWKCFCYFNC [L6-40] (Defensin like)
Antifungal activity, Mycosphaerella fijiensis (improvement compared to DmAMP1) (Mycosphaerella fijiensis): + (key: + indicating 1- to 5-fold improvement compared to DmAMP1; ++ indicating >5- to 10-fold improvement; +++ indicating >10-fold improvement)
Antifungal activity, Fusarium graminearum (improvement compared to DmAMP1) (Fusarium graminearum): +++ (key: + indicating 1- to 5-fold improvement compared to DmAMP1; ++ indicating >5- to 10-fold improvement; +++ indicating >10-fold improvement)
Antifungal activity, Septoria tritici (improvement compared to DmAMP1) (Septoria tritici): +++ (key: + indicating 1- to 5-fold improvement compared to DmAMP1; ++ indicating >5- to 10-fold improvement; +++ indicating >10-fold improvement)

NLCEKASKTWTGNCGNTKHCDTQCKNWEGAKHGACHVRNGKWKCFCYFNC (Defensin like) [L6-69]
Antifungal activity, Mycosphaerella fijiensis (improvement compared to DmAMP1) (Mycosphaerella fijiensis): + (key: + indicating 1- to 5-fold improvement compared to DmAMP1; ++ indicating >5- to 10-fold improvement; +++ indicating >10-fold improvement)
Antifungal activity, Fusarium graminearum (improvement compared to DmAMP1) (Fusarium graminearum): +++ (key: + indicating 1- to 5-fold improvement compared to DmAMP1; ++ indicating >5- to 10-fold improvement; +++ indicating >10-fold improvement)
Antifungal activity, Septoria tritici (improvement compared to DmAMP1) (Septoria tritici): +++ (key: + indicating 1- to 5-fold improvement compared to DmAMP1; ++ indicating >5- to 10-fold improvement; +++ indicating >10-fold improvement)

NLCERASKTWSGNCGNTKHCDTQCRSWEGAAHGACHKRSGKWKCFCYFNC (Defensin like) [L9-41]
Antifungal activity, Mycosphaerella fijiensis (improvement compared to DmAMP1) (Mycosphaerella fijiensis): + (key: + indicating 1- to 5-fold improvement compared to DmAMP1; ++ indicating >5- to 10-fold improvement; +++ indicating >10-fold improvement)
Antifungal activity, Fusarium graminearum (improvement compared to DmAMP1) (Fusarium graminearum): ++ (key: + indicating 1- to 5-fold improvement compared to DmAMP1; ++ indicating >5- to 10-fold improvement; +++ indicating >10-fold improvement)
Antifungal activity, Septoria tritici (improvement compared to DmAMP1) (Septoria tritici): + (key: + indicating 1- to 5-fold improvement compared to DmAMP1; ++ indicating >5- to 10-fold improvement; +++ indicating >10-fold improvement)

NLCERASKTWSGNCGNTKHCDTQCRNWEGAKHGACHKRNGKWKCFCYFNC (Defensin like) [L9-32]
Antifungal activity, Mycosphaerella fijiensis (improvement compared to DmAMP1) (Mycosphaerella fijiensis): + (key: + indicating 1- to 5-fold improvement compared to DmAMP1; ++ indicating >5- to 10-fold improvement; +++ indicating >10-fold improvement)
Antifungal activity, Fusarium graminearum (improvement compared to DmAMP1) (Fusarium graminearum): ++ (key: + indicating 1- to 5-fold improvement compared to DmAMP1; ++ indicating >5- to 10-fold improvement; +++ indicating >10-fold improvement)
Antifungal activity, Septoria tritici (improvement compared to DmAMP1) (Septoria tritici): + (key: + indicating 1- to 5-fold improvement compared to DmAMP1; ++ indicating >5- to 10-fold improvement; +++ indicating >10-fold improvement)

NLCEKASKTWTGNCGNTKHCDNQCRNWEGAAHGACHKRNGKWKCFCYFNC (Defensin like) [L3-71]
Antifungal activity, Mycosphaerella fijiensis (improvement compared to DmAMP1) (Mycosphaerella fijiensis): +++ (key: + indicating 1- to 5-fold improvement compared to DmAMP1; ++ indicating >5- to 10-fold improvement; +++ indicating >10-fold improvement)
Antifungal activity, Fusarium graminearum (improvement compared to DmAMP1) (Fusarium graminearum): +++ (key: + indicating 1- to 5-fold improvement compared to DmAMP1; ++ indicating >5- to 10-fold improvement; +++ indicating >10-fold improvement)
Antifungal activity, Septoria tritici (improvement compared to DmAMP1) (Septoria tritici): +++ (key: + indicating 1- to 5-fold improvement compared to DmAMP1; ++ indicating >5- to 10-fold improvement; +++ indicating >10-fold improvement)

NLCERASKTWSGNCGNTKHCDTQCKSWEGAAHGACHVRNGKHKCFCYFNC (Defensin like) [L6-27]
Antifungal activity, Mycosphaerella fijiensis (improvement compared to DmAMP1) (Mycosphaerella fijiensis): + (key: + indicating 1- to 5-fold improvement compared to DmAMP1; ++ indicating >5- to 10-fold improvement; +++ indicating >10-fold improvement)
Antifungal activity, Fusarium graminearum (improvement compared to DmAMP1) (Fusarium graminearum): +++ (key: + indicating 1- to 5-fold improvement compared to DmAMP1; ++ indicating >5- to 10-fold improvement; +++ indicating >10-fold improvement)
Antifungal activity, Septoria tritici (improvement compared to DmAMP1) (Septoria tritici): +++ (key: + indicating 1- to 5-fold improvement compared to DmAMP1; ++ indicating >5- to 10-fold improvement; +++ indicating >10-fold improvement)

NLCEKASKTWTGNCGNTKHCDTQCRNWEGAKHGACHKRNGKWKCFCYFNC (Defensin like) [L6-32]
Antifungal activity, Mycosphaerella fijiensis (improvement compared to DmAMP1) (Mycosphaerella fijiensis): +++ (key: + indicating 1- to 5-fold improvement compared to DmAMP1; ++ indicating >5- to 10-fold improvement; +++ indicating >10-fold improvement)
Antifungal activity, Fusarium graminearum (improvement compared to DmAMP1) (Fusarium graminearum): +++ (key: + indicating 1- to 5-fold improvement compared to DmAMP1; ++ indicating >5- to 10-fold improvement; +++ indicating >10-fold improvement)
Antifungal activity, Septoria tritici (improvement compared to DmAMP1) (Septoria tritici): +++ (key: + indicating 1- to 5-fold improvement compared to DmAMP1; ++ indicating >5- to 10-fold improvement; +++ indicating >10-fold improvement)
